Measurements taken from the supplement of paper PMC10307832.

Tests used:
Assay in all cases: relative viability (nuclei count vs DMSO), 5 days (fraction); higher = more cells survive
NCI-H727 = test system: NCI-H727
Outline: (§1)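 Five library-drug doses in √10 steps were combined with a fixed anchor-drug dose, or a single drug was given alone, by pin tool to lung cancer cell lines in 1536-well plates the day after seeding. Nuclei were stained and counted after 5 days. Relative viability is the nuclei count in treated wells over that in vehicle wells, taken as the median of duplicate plates.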

NCI-H1651 = test system: NCI-H1651
Outline: as §1

NCI-H647 = test system: NCI-H647
Outline: as §1

NCI-H1437 = test system: NCI-H1437
Outline: as §1

EKVX = test system: EKVX
Outline: as §1

HCC-15 = test system: HCC-15
Outline: as §1

HCC-44 = test system: HCC-44
Outline: as §1

COR-L23 = test system: COR-L23
Outline: as §1

NCI-H2087 = test system: NCI-H2087
Outline: as §1

EPLC-272H = test system: EPLC-272H
Outline: as §1

UMC-11 = test system: UMC-11
Outline: as §1

ABC-1 = test system: ABC-1
Outline: as §1

LCLC-103H = test system: LCLC-103H
Outline: as §1

NCI-H1792 = test system: NCI-H1792
Outline: as §1

HCC-827 = test system: HCC-827
Outline: as §1

NCI-H520 = test system: NCI-H520
Outline: as §1

H3255 = test system: H3255
Outline: as §1

201T = test system: 201T
Outline: as §1

NCI-H661 = test system: NCI-H661
Outline: as §1

NCI-H1975 = test system: NCI-H1975
Outline: as §1

NCI-H1650 = test system: NCI-H1650
Outline: as §1

NCI-H358 = test system: NCI-H358
Outline: as §1

COR-L 105 = test system: COR-L 105
Outline: as §1

## Cc1cnc(-c2cnc(NCCNc3ccc(C#N)cn3)nc2-c2ccc(Cl)cc2Cl)[nH]1 + CS(=O)(=O)N1CCN(Cc2cc3nc(-c4cccc5[nH]ncc45)nc(N4CCOCC4)c3s2)CC1 [Pictilisib] (partner 1 µM)
NCI-H727; first compound 0.08 µM
  relative viability: 0.462
NCI-H727; first compound 0.253 µM
  relative viability: 0.259
NCI-H727; first compound 0.8 µM
  relative viability: 0.378
NCI-H727; first compound 2.53 µM
  relative viability: 0.435
NCI-H1651; first compound 0.08 µM
  relative viability: 0.67
NCI-H1651; first compound 0.253 µM
  relative viability: 0.485
NCI-H1651; first compound 0.8 µM
  relative viability: 0.524
NCI-H1651; first compound 2.53 µM
  relative viability: 0.686
NCI-H647; first compound 0.08 µM
  relative viability: 0.451
NCI-H647; first compound 0.253 µM
  relative viability: 0.45
NCI-H647; first compound 0.8 µM
  relative viability: 0.366
NCI-H647; first compound 2.53 µM
  relative viability: 0.458
NCI-H1437; first compound 0.08 µM
  relative viability: 0.521
NCI-H1437; first compound 0.253 µM
  relative viability: 0.399
NCI-H1437; first compound 0.8 µM
  relative viability: 0.483
NCI-H1437; first compound 2.53 µM
  relative viability: 0.379
EKVX; first compound 0.08 µM
  relative viability: 0.462
EKVX; first compound 0.253 µM
  relative viability: 0.394
EKVX; first compound 0.8 µM
  relative viability: 0.374
EKVX; first compound 2.53 µM
  relative viability: 0.392
HCC-15; first compound 0.08 µM
  relative viability: 0.681
HCC-15; first compound 0.253 µM
  relative viability: 0.669
HCC-15; first compound 0.8 µM
  relative viability: 0.746
HCC-15; first compound 2.53 µM
  relative viability: 0.739
HCC-44; first compound 0.08 µM
  relative viability: 0.706
HCC-44; first compound 0.253 µM
  relative viability: 0.578
HCC-44; first compound 0.8 µM
  relative viability: 0.715
HCC-44; first compound 2.53 µM
  relative viability: 0.938
COR-L23; first compound 0.08 µM
  relative viability: 0.901
COR-L23; first compound 0.253 µM
  relative viability: 0.683
COR-L23; first compound 0.8 µM
  relative viability: 0.944
COR-L23; first compound 2.53 µM
  relative viability: 0.755
NCI-H2087; first compound 0.08 µM
  relative viability: 0.853
NCI-H2087; first compound 0.253 µM
  relative viability: 0.754
NCI-H2087; first compound 0.8 µM
  relative viability: 0.975
NCI-H2087; first compound 2.53 µM
  relative viability: 1.06
EPLC-272H; first compound 0.08 µM
  relative viability: 0.337
EPLC-272H; first compound 0.253 µM
  relative viability: 0.325
EPLC-272H; first compound 0.8 µM
  relative viability: 0.316
EPLC-272H; first compound 2.53 µM
  relative viability: 0.358
UMC-11; first compound 0.08 µM
  relative viability: 0.871
UMC-11; first compound 0.253 µM
  relative viability: 0.777
UMC-11; first compound 0.8 µM
  relative viability: 0.496
UMC-11; first compound 2.53 µM
  relative viability: 0.859
ABC-1; first compound 0.08 µM
  relative viability: 1
ABC-1; first compound 0.253 µM
  relative viability: 0.584
ABC-1; first compound 0.8 µM
  relative viability: 0.75
ABC-1; first compound 2.53 µM
  relative viability: 0.744
LCLC-103H; first compound 0.08 µM
  relative viability: 0.675
LCLC-103H; first compound 0.253 µM
  relative viability: 0.542
LCLC-103H; first compound 0.8 µM
  relative viability: 0.696
LCLC-103H; first compound 2.53 µM
  relative viability: 0.619
NCI-H1792; first compound 0.08 µM
  relative viability: 0.34
NCI-H1792; first compound 0.253 µM
  relative viability: 0.268
NCI-H1792; first compound 0.8 µM
  relative viability: 0.25
NCI-H1792; first compound 2.53 µM
  relative viability: 0.385
HCC-827; first compound 0.08 µM
  relative viability: 1.02
HCC-827; first compound 0.8 µM
  relative viability: 0.951
HCC-827; first compound 2.53 µM
  relative viability: 0.813
NCI-H520; first compound 0.08 µM
  relative viability: 0.286
NCI-H520; first compound 0.253 µM
  relative viability: 0.336
NCI-H520; first compound 0.8 µM
  relative viability: 0.346
NCI-H520; first compound 2.53 µM
  relative viability: 0.497
H3255; first compound 0.08 µM
  relative viability: 0.554
H3255; first compound 0.253 µM
  relative viability: 0.463
H3255; first compound 0.8 µM
  relative viability: 0.469
H3255; first compound 2.53 µM
  relative viability: 0.476
201T; first compound 0.08 µM
  relative viability: 0.713
201T; first compound 0.253 µM
  relative viability: 0.629
201T; first compound 0.8 µM
  relative viability: 0.724
201T; first compound 2.53 µM
  relative viability: 0.723
NCI-H661; first compound 0.08 µM
  relative viability: 0.476
NCI-H661; first compound 0.253 µM
  relative viability: 0.395
NCI-H661; first compound 0.8 µM
  relative viability: 0.476
NCI-H661; first compound 2.53 µM
  relative viability: 0.393
NCI-H1975; first compound 0.08 µM
  relative viability: 0.328
NCI-H1975; first compound 0.253 µM
  relative viability: 0.297
NCI-H1975; first compound 0.8 µM
  relative viability: 0.299
NCI-H1975; first compound 2.53 µM
  relative viability: 0.338
NCI-H1650; first compound 0.08 µM
  relative viability: 0.682
NCI-H1650; first compound 0.253 µM
  relative viability: 0.595
NCI-H1650; first compound 0.8 µM
  relative viability: 0.518
NCI-H1650; first compound 2.53 µM
  relative viability: 0.597
NCI-H358; first compound 0.08 µM
  relative viability: 0.301
NCI-H358; first compound 0.8 µM
  relative viability: 0.389
NCI-H358; first compound 2.53 µM
  relative viability: 0.264
COR-L 105; first compound 0.08 µM
  relative viability: 0.344
COR-L 105; first compound 0.253 µM
  relative viability: 0.468
COR-L 105; first compound 0.8 µM
  relative viability: 0.176
COR-L 105; first compound 2.53 µM
  relative viability: 0.385
